According to patent EP4230622A1, “NERVE DAMAGE PREVENTING AND NERVE PROTECTING COMPOUNDS, PREPARATION METHOD THEREOF, PHARMACEUTICAL COMPOSITION THEREOF, AND THEIR USE” (Genhealth Pharma Co., Ltd., priority 2022, dated 2023):

Columns and labels:
[1] = system: male Sprague Dawley rat (SD rat); assay: Evaluation of the effect of preventing nerve damage: transient focal MCAO/R model, infarct volume by TTC staining; assay type: in vivo; settings: 50 mg/kg intraperitoneal injection once 10 minutes before, 1 hour ischemia, 24 hours blood reperfusion, sum of seven brain slices, 5 SD rats
Method: The specific solvent was made of dimethyl sulfoxide (DMSO), cremophor EL (CrEL) and water, with the relative volume ratio of 10:20:70, respectively. Besides the foresaid experimental groups, only pure solvent used was treated as vehicle group, and a sham group, which was not administrated with any compound or solvent or with nylon monofilament to cause obstruction and ischemia, was also included.
In this test example, transient focal Middle Cerebral Artery Occlusion/ Reperfusion model (MCAO/R model) was adopted to simulate ischemic stroke for evaluating the subsequent nerve damage. Specifically, male Sprague Dawley rat (SD rat) was adopted and anaesthetized with 2% isoflurane, and then the right common carotid artery, external carotid artery and internal carotid artery were distinguished among them from the neck.
Next, a nylon monofilament with length of 22 millimeters (mm), size number of 4/0 and capped with polysiloxane was inserted into the external carotid artery and along with the […] of Willis to induce obstruction and ischemia in the middle cerebral artery. After causing obstruction and ischemia for 1 hour, the nylon monofilament was removed to allow the blood recirculated to the brain, in other words, to undergo blood reperfusion.
After blood reperfusion for 24 hours, the rat was sacrificed and the brain thereof was placed into a cooled 0.95% saline. Then, 1 mm part of the brain tip was excised, and the rest of the brain was cut in coronal section to obtain seven slices of brain tissue with each thickness of 2 mm. Next, those sliced brain tissues were infiltrated with 1% 2,3,5-triphenyltetrazolium chloride (TTC) for 30-minute at room temperature (about 25°C to 27°C). Afterward, the sliced brain tissues were […] with a 4% […] solution, and then MacroPATH Digital Imaging System was used to record the images and the obtained images were analyzed by ImageJ 1.52a to count the infarct volume percent, which could represent the degree of nerve damage. The foresaid infarct volume percent was obtained by adding the values acquired by multiplying the proportion of infarct area of each sliced brain tissue with their thickness, and the proportion of infarct area was calculated by the equation: (B-A)/B×100%; wherein, "A" represented the undamaged area in the damaged cerebral hemisphere on the right side, and "B" represented the total area of the undamaged cerebral hemisphere on the left side.
Here, 10 minutes before processing the foresaid MCAO/R model, the rats were administrated with the test samples of Examples 1 to 15 by intraperitoneal injection for one time. The administration amount was 50 milligrams per kilogram (mg/kg) or 5 ml/kg. The actual applied amount was depended on the weight of the rates. The treatment for the vehicle group was the same as that of the experimental group except only solvent was used.
The results of TTC staining of the seven sliced brain tissues of the groups of Examples 1 to 15, the vehicle group and the sham group were shown in FIG. 2. 5 SD rats were used for each experimental groups of Examples 1 to 15 and the vehicle group, while only 3 SD rats were used for the sham group. Table 2: The total infarct volume percent of Examples 1 to 15, the vehicle group, and the sham group.

[2] = system: male Sprague Dawley rat (SD rat); assay: Neurobehavioral evaluation (Bederson classification) after MCAO/R; settings: Bederson grade 0 to 4, 50 mg/kg intraperitoneal before MCAO/R

Row | SMILES | Total infarct volume percent (%) [1] | Grade, Time point of 0.5-hour after blood reperfusion [2] | Grade, Time point of 1.5-hour after blood reperfusion [2] | Grade, Time point of 24-hour after blood reperfusion ([2]; 50 mg/kg) | Grade, Time point of 24-hour after blood reperfusion [2]
1 | COc1cc(C(=O)OCc2ccccc2)c(OC)c2c1OCO2 [Example 12] | 35.67% | – | – | – | –
2 | CCCCc1c(C)c(OC)c2c(c1OC)OCO2 [Example 2] | 30.75% | – | – | – | –
3 | COc1cc(C(=O)N[C@@H](C)C(=O)O)c(OC)c2c1OCO2 [Example 11] | 15.93% | 2.80 | 2.00 | 1.60 | –
4 | COc1cc(C(=O)Nc2c(C)n(C)n(-c3ccccc3)c2=O)c(OC)c2c1OCO2 [Example 13] | 32.53% | – | – | – | –
5 | CCOC(=O)c1ccc(NC(=O)c2cc(OC)c3c(c2OC)OCO3)cc1 [Example 15] | 17.76% | 2.80 | 2.60 | – | 2.00
6 | COc1ccc(C[C@@H](C)NC(=O)c2cc(OC)c3c(c2OC)OCO3)cc1S(N)(=O)=O [Example 6] | 19.67% | 2.60 | 2.40 | – | 2.20
7 | COc1cc(CNC(C)=O)c(OC)c2c1OCO2 [Example 5] | 20.2% | 2.40 | 2.40 | – | 2.40
8 | COc1cc(C(=O)Nc2sc(C)cc2C#N)c(OC)c2c1OCO2 [Example 14] | 34.77% | – | – | – | –
9 | COc1cc(C(=O)NCCCC(=O)O)c(OC)c2c1OCO2 [Example 7] | 15.17% | 2.60 | 2.40 | 1.60 | –
10 | COc1cc(C(=O)NCCC(=O)O)c(OC)c2c1OCO2 [Example 10] | 21.76% | 2.60 | 2.40 | – | 2.20
11 | COc1cc(C(=O)Nc2ccc(O)cc2)c(OC)c2c1OCO2 [Example 9] | 14.52% | 2.80 | 2.40 | 1.40 | –
12 | COc1cc(C(=O)NCCc2ccc(O)c(O)c2)c(OC)c2c1OCO2 [Example 8] | 22.39% | 2.40 | 2.60 | – | 2.00
